Each structure is given as a SMILES string. Records with an inconclusive call do not appear. Activity calls are given as the source filed them. No rule for the calls is given here.

96 compounds from PubChem BioAssay AID2423 (Broad Institute, 2010) can be followed below.

In the experiment the test system is C. albicans CaCi-8 + fluconazole, Alamar Blue growth, 48 h. Kind of experiment: resistant C. albicans growth inhibition with fluconazole, dose response, CaCi-8 strain, Alamar Blue fluorescence (AID 2423). Background: The colour change of resazurin is a common sign of viable cells or microbes.
With `Cn1c(/C=N/Nc2nc3ccccc3[nH]2)nc2ccccc21`, the EC50 was > 16000 nM (inactive).
For the compound `CC(C)=CCc1cc2c(=O)c3c(O)c4c(cc3oc2c(O)c1O)OC(C)C4(C)C` (stereo unspecified), the EC50 was 6360 nM.
For `COCC(=O)Nc1nc2n(n1)C(c1ccccc1Cl)CC(c1ccc(OC)cc1)N2` (stereo unspecified) the value was > 16000 nM (inactive).
For `COc1ccc(NS(=O)(=O)c2ccc3ccccc3c2)c2ncccc12` the value was 3790 nM; for `CC1CCCCN1S(=O)(=O)c1ccc(NC(=O)c2cccc(-n3cnnn3)c2)cc1` (stereo unspecified), > 15000 nM (inactive); for `O=C1c2ccccc2NC(c2ccc(-c3cccc(Cl)c3)o2)N1O` (stereo unspecified), 2000 nM.
Take `COc1ccc(-c2nnc(Nc3nc4c(OC)cccc4s3)o2)c(OC)c1`: the EC50 is 2710 nM.
In the case of `CC(=O)N(Cc1ccc(F)cc1)C1=C(NCc2ccccc2)C(=O)c2ccccc2C1=O`, the EC50 was 596 nM.
As for `Cc1[nH]c2ccccc2c1C(=O)CCl`, the EC50 was 175 nM.
For `CC1CCc2c(sc3ncnc(N4CCOCC4)c23)C1` (stereo unspecified) the value was > 16000 nM (inactive); for `Cc1ccc(S(=O)(=O)N(C)c2ccc(OCC(=O)Nc3nnc(C4CC4)s3)cc2)cc1`, 708 nM.
For `Oc1ccccc1C(Nc1nccs1)c1ccc2cccnc2c1O` (stereo unspecified) the value was 2730 nM; for `COc1ccc(CCC(=O)N2CC(C)OC(C)C2)cc1` (stereo unspecified), > 15000 nM (inactive); for `O=C(O)CSc1nc(-c2ccc(Cl)cc2)nc2c1oc1ccccc12`, 1510 nM.
With `Cc1nnc(N/N=C/c2ccccn2)[nH]c1=O`, the EC50 is 2250 nM.
As to `O=[N+]([O-])c1cc(O)c2ncccc2c1`, the EC50 was 763 nM.
For `N/C(=N\OC(=O)N1c2ccccc2Sc2ccccc21)c1ccccc1` the value was 193 nM; for `CCc1cc(=S)n2c([nH]c3ccccc32)c1C#N`, 513 nM; for `Cc1ccc2cc(C3C(C#N)=C(N)Oc4c3ccc3cccnc43)c(=O)[nH]c2c1` (stereo unspecified), 1900 nM.
For `CCc1nnc(NC(=O)Cn2ccc(C(F)(F)F)n2)s1` the value was > 15000 nM (inactive); for `C[C@]12CC[C@H](O)C[C@@H]1CC[C@@H]1[C@@H]2CC[C@]2(C)C(=O)CC[C@@H]12`, 5650 nM.
For `O=c1cnnc(N/N=C/c2ccccn2)[nH]1` the value was 875 nM; for `CCCc1cc(=O)[nH]c(SCc2csc(-c3ccccc3)n2)n1`, 1390 nM.
With `COC(=O)/C(=N\Nc1ccc(Cl)cc1)Sc1nnc(-c2ccc(OC)cc2)n1C`, the EC50 was > 16000 nM (inactive).
`Cc1onc(-c2ccccc2Cl)c1C(=O)Nc1sc2c(c1C#N)CCC2`: the EC50 was less than 120 nM.
For `Oc1ccc(Br)cc1/C=N/Nc1ccccn1` the value was 2590 nM; for `Cc1ccc(/C=C2\SC(=S)N(/N=C/c3cc([N+](=O)[O-])ccc3O)C2=O)o1`, 3330 nM.
For `Cc1c(Cc2ccccc2)c(=O)oc2c(O)c(O)ccc12` the value was 2750 nM.
Take `O=C(CSc1nnc(-c2ccc(Br)cc2)o1)Nc1cccc2ccccc12`: the EC50 was 15600 nM.
As to `Cc1cccc(C(=O)NNC(=S)NC(=O)c2cccs2)c1`, the EC50 is 1460 nM.
Regarding `O=c1c2ccccc2nc(-c2ccc([N+](=O)[O-])cc2)n1O`, the concentration for a half-maximal effect (EC50) was 6520 nM.
Regarding `Cc1cccc(NC(=O)NNC(=O)c2cc3ccccc3cc2O)c1C`, the EC50 was > 15000 nM (inactive).
Take `CCOC(=O)c1cc2c(=O)n3ccccc3nc2n(CCOC)c1=NC(=O)c1ccncc1`: the EC50 was > 15000 nM (inactive).
For `CCN(CC)c1ccc(/C=N/NC(=O)c2ccc3nc[nH]c3c2)c(O)c1` the value was 1160 nM.
On to `Cc1ccc(SCC(=O)Nc2ccc3c(c2)C(=O)N(C)C3=O)cc1`, for which the EC50 is > 15000 nM (inactive).
`Cc1ccc(-n2c(C)cc(/C([O-])=C(/C(=S)Nc3ccc(F)c(Cl)c3)[n+]3ccccc3)c2C)cc1`: the EC50 was > 16000 nM (inactive).
Take `N#C/C(=C\c1ccc(N2CCOCC2)cc1)c1ccccc1`: the EC50 is 492 nM.
With `Cc1nn(-c2ccccc2)c(C)c1C(=O)OC/C(O)=C(\C#N)c1nc2ccccc2[nH]1`, the EC50 was 1030 nM.
For `COc1cc2c(cc1NC(=O)c1ccco1)CCCC2` the value was 1060 nM.
For `Cc1ccsc1C(=O)OCC(=O)Nc1nnc(-c2ccccc2)o1` the value was 3120 nM; for `COc1cccc(C2/C(=C(/O)c3ccc(C)cc3)C(=O)C(=O)N2Cc2ccco2)c1` (stereo unspecified), 7030 nM.
For `Nc1[nH]n2c(=O)cc(-c3ccccc3)nc2c1N=Nc1ccc(S(N)(=O)=O)cc1` the value was 3060 nM; for `COc1ccc(C(=O)NCCN2CCOCC2)c(OC)c1OC`, > 15000 nM (inactive); for `COc1cccc(/C=N/NC(=O)c2c(C)nc3ccc(Cl)cn23)c1O`, 1710 nM.
Take `CC(=O)Nc1ncnc2c1c(-c1ccc(Cl)cc1)nn2C(C)(C)C`: the EC50 was 1330 nM.
For `Cc1ccc(S(=O)(=O)/N=C2/NC(=O)/C(=C\c3cc(Br)cc(Br)c3O)S2)cc1` the value was 9680 nM; for `Cc1csc2ncnc(NCCc3ccccn3)c12`, 6030 nM.
For `O=C(CCS(=O)(=O)c1ccc(Cl)cc1)Nc1nc(-c2ccncc2)cs1` the value was 709 nM; for `Cc1ccc(S(=O)(=O)CCC(=O)Nc2nc(-c3ccncc3)cs2)cc1`, 2140 nM; for `COc1ccc(C2N=C(Nc3ccc(C)cc3)Nc3nc(C)cc(=O)n32)cc1` (stereo unspecified), > 16000 nM (inactive).
For the compound `N=C1/C(=C\c2ccc(SCc3ccccc3)o2)C(=O)N=C2SC=NN12`, the EC50 was > 15000 nM (inactive).
As for `O=C1CN2C(=Nc3ccc(Cl)cc3C2c2ccccc2)CN1` (stereo unspecified), the EC50 was 3300 nM.
`O=C(Nc1cccc2ccccc12)c1ccc([N+](=O)[O-])o1`: the EC50 was 726 nM.
For `O=C(Nc1ccncc1)c1ccc(Br)cc1` the value was > 15000 nM (inactive); for `Cc1ccc(C2(c3noc(CN4CCC(c5ccncc5)CC4)n3)CCCC2)cc1`, > 15000 nM (inactive).
As for `CCOC(=O)Cc1csc(NC(=O)CSc2nnc(-c3ccc(NS(=O)(=O)CC)cc3)o2)n1`, the concentration giving a half-maximal response (EC50) was 150 nM.
For `CC(C)(C)c1ccc(CSc2cnn(C(C)(C)C)c(=O)c2Cl)cc1` the value was 324 nM; for `CCC(=O)N1c2ccc(S(=O)(=O)CCC(=O)N3CCn4c3nc3ccccc34)cc2CC1C` (stereo unspecified), 1120 nM.
For `O=C(CCS(=O)(=O)c1cccc2nsnc12)N1CCN(C(=O)c2ccco2)CC1` the value was > 16000 nM (inactive); for `CCN(CC)c1ccc(/C=N/NC(=O)c2cccc(S(=O)(=O)N3CCOCC3)c2)c(O)c1`, 513 nM; for `O=C(Nc1ccccc1N1CCOCC1)c1ccc(S(=O)(=O)NCc2ccco2)cc1`, > 15000 nM (inactive).
For `Cc1cc(=O)oc2cc(Oc3ccc([N+](=O)[O-])cc3[N+](=O)[O-])ccc12` the value was 652 nM; for `COc1cccc(/C=N/Nc2nccnc2Cl)c1O`, 1800 nM; for `O=C(Cc1ccc(O)cc1)N/N=C/c1cccnc1`, > 16000 nM (inactive).
With `COc1ccc(/C=C/c2cc(-c3ccc(C)cc3)o[n+]2C)cc1`, the EC50 is 1650 nM.
Regarding `[O-][N+]1=c2ccc(Nc3ccccc3)cc2=NC12CCCCC2`, the EC50 is 750 nM.
For `CCCOC(=O)/C(=C\c1ccc([N+](=O)[O-])o1)NC(=O)c1ccccc1`, the EC50 is > 16000 nM (inactive).
`CCOC(=O)N1CCN(Cc2ccc(O)c3ncccc23)CC1`: the EC50 was 12500 nM.
For `CN1/C(=C\C(=O)C[n+]2ccc(C(=O)c3ccccc3)cc2)C(C)(C)c2ccccc21` the value was 4060 nM; for `CCn1c(/C=C/c2ccc([N+](=O)[O-])o2)nc2ccccc2c1=O`, less than 120 nM; for `CC(C)Cc1nc2oc3c(=O)[nH]cnc3c2c2c1CCCC2`, 297 nM.
For `O=C(c1cc2c(s1)-c1ccccc1OC2)N1CCC2(CC1)OCCO2` the value was 2000 nM.
For `COc1ccc(-c2cc(-c3c(O)c(OC)c4occc4c3OC)[nH]n2)cc1` the value was > 15000 nM (inactive); for `Cn1c(=O)cc(OCCCC(=O)Nc2cccnc2)c2ccccc21`, > 16000 nM (inactive).
`CCCc1cc(=O)[nH]c(SCC(=O)Nc2ccc(Br)cc2Br)n1`: the EC50 is 2590 nM.
For `CCc1nnc(NC(=O)CSc2ncc(-c3ccccc3)n2C)s1` the value was 1640 nM; for `Cc1ccc(S(=O)(=O)Nc2ccc(O)c3ncccc23)cc1`, 3310 nM.
For `Cc1c(N=NC2=C(O)CC(C)(C)CC2=O)c(=O)n(-c2ccccc2)n1C` the value was 14000 nM; for `COc1ccccc1NS(=O)(=O)c1cc(NC(=O)CCC(=O)c2cccs2)ccc1Cl`, > 15000 nM (inactive); for `O=C(Nc1nnc(-c2ccco2)o1)c1cccc(Cl)c1`, 859 nM.
With `CCOc1ccccc1C(=O)Nc1ccc2nc3n(c(=O)c2c1)CCCCC3`, the EC50 is 2510 nM.
For `Cc1cc(C)c(-c2cc(NC(=O)COC(=O)c3ccc(C#N)cc3)n(-c3ccccc3)n2)cc1C` the value was 397 nM; for `Cc1cc(NC(=O)c2ccc([N+](=O)[O-])o2)ccc1NC(=O)c1ccco1`, 338 nM; for `O=c1c2ccc(Cl)cc2nc(-c2cccc(C(F)(F)F)c2)n1O`, 832 nM.
For `COc1ccc(C2Nc3ccccc3C(=O)N2O)cc1OC` (stereo unspecified), the EC50 was > 15000 nM (inactive).
For `CC(=O)NNC(=S)NC(=O)C(c1ccccc1)c1ccccc1` the value was 3190 nM.
For `O=C(Cc1cnn(-c2ccccc2)c1)c1ccc(O)c(O)c1O` the value was 8400 nM; for `CCOc1ccc(N=Nc2ccc(O)c3ncccc23)cc1`, 1150 nM.
For the compound `CS/C(=C\[N+](=O)[O-])Nc1ccc(Cl)cc1`, the EC50 is 4020 nM.
As for `Oc1nc(Nc2ccccc2)sc1/C=C1\C=Nc2ccccc21`, the EC50 was 1630 nM.
As to `Cc1cc(C)c(S(=O)(=O)Nc2cccc(-n3cnnn3)c2)c(C)c1`, the EC50 is 13000 nM.
For `CCN(CC)c1ccc2nc3ccccc3[n+](CC)c2c1`, the EC50 was 842 nM.
`CC(C)(C)c1ccc(SCC(N)=O)cc1`: the EC50 is > 15000 nM (inactive).
`CC(=O)Nc1cccc(NC(=O)C2CCCN2C(=O)Nc2ccc(Cl)cc2)c1` (stereo unspecified): the EC50 is > 16000 nM (inactive).
For `CC(=O)c1ncnn1CC(=O)c1ccc(Cl)cc1Cl` the value was > 16000 nM (inactive); for `COc1ccc(NC(=O)/C(C#N)=C\c2ccc(N3CCOCC3)o2)cc1`, 3760 nM.

By EC50 is commonly meant the concentration at which the effect is half-maximal.
